This is an account of results in ChEMBL document CHEMBL1201862, “PubChem BioAssay data set” (2004).

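Briefly, cells in 96-well plates were exposed to five compound concentrations for 48 h, and endpoints were estimated by linear interpolation. GI50 is the concentration that inhibits growth by half.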 The source made the active and inactive calls. Rule as the data show it: active = GI50 up to about 1.1 µM and inactive = higher. Where only a bound is given, the exact number is not on record here.

Test systems include UO-31; SNB-19; SF-295; NCI-H460; M14; SK-MEL-2; ACHN; Malme-3M; SN12C; HCT-116; HT-29; UACC-62; BT-549; MDA-MB-435; A549; OVCAR-4; HCC 2998; NCI-H522.
Holding throughout (assay): NCI-60 cell line screen, 48 h

Turning to `CCCCCCCCCCCCCCCCC(C(=O)O)C(O)(CC(=O)O)C(=O)O` (centres undefined), the GI50 was 20.3 µM (inactive) in the assay on UO-31; 23.9 µM (inactive) in the assay on SNB-19; 17.7 µM (inactive) with SF-295; 17.5 µM (inactive) with NCI-H460; 19.7 µM (inactive) in the assay with M14; 18.9 µM (inactive) with SK-MEL-2. Besides, the GI50 with ACHN is 40.6 µM (inactive); with Malme-3M, 58.6 µM (inactive); in the assay with SN12C, 21.7 µM (inactive); with HCT-116, 19.1 µM (inactive); in the assay on HT-29, 21.2 µM (inactive); in the assay with UACC-62, 18.2 µM (inactive). Also, the figures for the GI50 in the assay with BT-549 and in the assay with MDA-MB-435 were 20.3 µM (inactive) and 34.8 µM (inactive), respectively.
Regarding `COc1ccccc1NC(=O)C(=O)Cc1cnc2ccccc2n1`, the GI50 in the assay with UO-31, in the assay on A549, with SNB-19, with SF-295, in the assay on NCI-H460 and in the assay on M14 was > 100 µM (inactive) each time. Also, the GI50 with SK-MEL-2, in the assay with OVCAR-4, with HCC 2998, in the assay on ACHN, with SN12C and in the assay with HCT-116 was > 100 µM (inactive) throughout. The GI50 with HT-29, in the assay with UACC-62, with BT-549 and in the assay on MDA-MB-435 was > 100 µM (inactive) each time.
Regarding `CC(C)C(NC(=O)C(Cc1ccccc1)NC(=O)[C@H]1CCC[C@H]1NC(=O)C(N)Cc1ccc(O)cc1)C(N)=O` (some centres undefined), the GI50 in the assay with UO-31, in the assay with A549, in the assay on SNB-19, in the assay with SF-295, with NCI-H460 and in the assay with M14 was > 100 µM (inactive) in each case. Further, the GI50 with NCI-H522, with SK-MEL-2, with OVCAR-4, in the assay on HCC 2998, in the assay with ACHN and in the assay on Malme-3M was > 100 µM (inactive) in each case. In addition, the GI50 in the assay with SN12C, with HCT-116, in the assay with HT-29, in the assay with UACC-62 and in the assay with MDA-MB-435 was > 100 µM (inactive) in each case.
Regarding `Cc1ccc(C)n2c1nc1ccc3ccccc3c12`, the GI50 is 61 µM (inactive) in the assay on UO-31; > 100 µM (inactive) in the assay on A549; > 100 µM (inactive) in the assay on SNB-19; > 100 µM (inactive) in the assay with SF-295; > 100 µM (inactive) in the assay with NCI-H460; > 100 µM (inactive) in the assay with M14. Also, the GI50 in the assay on HCC 2998 was > 100 µM (inactive); in the assay on ACHN, > 100 µM (inactive); with Malme-3M, > 100 µM (inactive); in the assay on SN12C, > 100 µM (inactive); in the assay with HT-29 it was > 100 µM (inactive); in the assay with UACC-62, 53.2 µM (inactive). The GI50 in the assay on BT-549 and in the assay with MDA-MB-435 was > 100 µM (inactive) each time.
For the compound `CCCCCCCCCCCCCCCCCCNC(=S)N/C=C1\C(=O)Nc2ccccc2C1=O`, the GI50 was 15.5 µM (inactive) in the assay on UO-31; 21.1 µM (inactive) with A549; 17.3 µM (inactive) with SNB-19; 21.4 µM (inactive) in the assay on SF-295; 16.1 µM (inactive) in the assay on NCI-H460; 18.3 µM (inactive) with M14. The GI50 in the assay on SK-MEL-2 is 21.4 µM (inactive); with OVCAR-4 it was 20.6 µM (inactive); in the assay with HCC 2998, 16.3 µM (inactive); in the assay with ACHN it was 16.4 µM (inactive); in the assay on SN12C it was 22.4 µM (inactive); in the assay on HCT-116, 15.7 µM (inactive). In addition, the GI50 is 16.9 µM (inactive) with HT-29, 18.9 µM (inactive) in the assay on BT-549 and 19.5 µM (inactive) with MDA-MB-435.
For `Clc1ccc(/C=c2\nc(-c3ccccc3)n3c2nc2ccccc23)cc1`, the GI50 in the assay with UO-31 is > 100 µM (inactive); in the assay with A549, > 100 µM (inactive); with SNB-19, > 100 µM (inactive); with SF-295 it was 25.5 µM (inactive); in the assay with NCI-H460 it was > 100 µM (inactive); in the assay on M14 it was > 100 µM (inactive). Further, the GI50 in the assay with SK-MEL-2 is > 100 µM (inactive); in the assay on OVCAR-4, 56.4 µM (inactive); in the assay on ACHN it was 21.9 µM (inactive); in the assay with Malme-3M it was > 100 µM (inactive); in the assay with SN12C, > 100 µM (inactive); in the assay on HCT-116, > 100 µM (inactive). Besides, the GI50 in the assay on HT-29 was > 100 µM (inactive); in the assay with UACC-62, > 100 µM (inactive); in the assay with BT-549 it was 63.2 µM (inactive); in the assay on MDA-MB-435, > 100 µM (inactive).
As for `CO/C(=N\N=C\c1ccc(OC)cc1OC)c1ccncc1`, the GI50 in the assay with UO-31, in the assay on A549, in the assay on SNB-19, in the assay with SF-295, with NCI-H460 and in the assay with SK-MEL-2 was > 10 µM (inactive) each time. Besides, the GI50 in the assay on HCC 2998, with ACHN, with Malme-3M, with SN12C and in the assay on HCT-116 was > 10 µM (inactive) throughout.
Turning to `O=C(c1ccco1)N(C(=S)OCc1ccccn1)c1ccccc1`, the GI50 is 43.9 µM (inactive) with UO-31; > 100 µM (inactive) in the assay with SNB-19; > 100 µM (inactive) in the assay with M14; > 100 µM (inactive) in the assay with SK-MEL-2; 86.1 µM (inactive) in the assay on ACHN; 17.2 µM (inactive) with Malme-3M. The GI50 in the assay on SN12C, with HCT-116, with HT-29, with UACC-62, in the assay with BT-549 and in the assay on MDA-MB-435 was > 100 µM (inactive) each time.
As to `c1cn[nH]c1` [PYRAZOLE], the GI50 in the assay with UO-31, with A549, in the assay with SNB-19, in the assay on SF-295, in the assay with NCI-H460 and in the assay with SK-MEL-2 was > 10 µM (inactive) throughout. The GI50 in the assay on OVCAR-4, with HCC 2998, with ACHN, in the assay on Malme-3M, with SN12C and with HCT-116 was > 10 µM (inactive) each time. Moreover, the GI50 in the assay on HT-29, in the assay on UACC-62 and with MDA-MB-435 was > 10 µM (inactive) each time.
Regarding `CN1c2ccc(Cl)cc2C(=O)NC1c1ccc([N+](=O)[O-])s1` (centres undefined), the GI50 with UO-31 was 12.1 µM (inactive); with A549 it was 23.5 µM (inactive); in the assay on SNB-19 it was 30.1 µM (inactive); in the assay with SF-295, 21.6 µM (inactive); in the assay on NCI-H460, 16.1 µM (inactive); with M14 it was 15.6 µM (inactive). Besides, the GI50 in the assay on SK-MEL-2 is 16.4 µM (inactive); with OVCAR-4, 20.4 µM (inactive); in the assay on HCC 2998, 16.1 µM (inactive); with ACHN it was 19.4 µM (inactive); with SN12C, 16.6 µM (inactive); with HCT-116 it was 15.2 µM (inactive). Besides, the GI50 with HT-29 was 18.9 µM (inactive); in the assay with UACC-62, 11.4 µM (inactive); in the assay with BT-549, 14.1 µM (inactive); with MDA-MB-435 it was 16.3 µM (inactive).
As for `CC1S/C(=N\N=C2/C(=O)Nc3ccc(Br)cc32)N(C2CCCCC2)C1=O` (centres undefined), the GI50 in the assay with UO-31 is 1.06 µM (active); with A549, 3.41 µM (inactive); in the assay with SNB-19, 4.06 µM (inactive); with SF-295 it was 3.89 µM (inactive); with NCI-H460 it was 3.96 µM (inactive); with M14 it was 4.29 µM (inactive). For the same compound, the GI50 with SK-MEL-2 was 1.45 µM (inactive); with OVCAR-4 it was 1.89 µM (inactive); with HCC 2998, 4.08 µM (inactive); in the assay with ACHN, 1.16 µM (inactive); in the assay on Malme-3M it was 9.23 µM (inactive); with SN12C, 2.93 µM (inactive). The GI50 in the assay on HCT-116 was 2.24 µM (inactive); in the assay on HT-29, 8.69 µM (inactive); in the assay on UACC-62 it was 2.01 µM (inactive); with MDA-MB-435, 5.37 µM (inactive).
In the case of `CC(C)[C@H](NC(=O)[C@@H](O)[C@H](N)Cc1ccccc1)C(=O)N[C@@H](Cc1ccccc1)C(=O)O`, the GI50 with UO-31, in the assay on A549, in the assay on SNB-19, in the assay with SF-295, in the assay with NCI-H460 and with M14 was > 100 µM (inactive) in each case. Besides, the GI50 with NCI-H522, in the assay with SK-MEL-2, in the assay with OVCAR-4, with HCC 2998, in the assay with ACHN and with Malme-3M was > 100 µM (inactive) in each case. Moreover, the GI50 with SN12C, in the assay on HCT-116, in the assay with UACC-62 and in the assay on MDA-MB-435 was > 100 µM (inactive) each time.
As for `COP1(=O)NCc2ncccc2O1` (centres undefined), the GI50 with UO-31, in the assay on A549, in the assay on SNB-19, in the assay on SF-295, in the assay on NCI-H460 and in the assay with M14 was > 100 µM (inactive) in each case. Also, the GI50 in the assay on SK-MEL-2, with OVCAR-4, with HCC 2998, with ACHN, in the assay with SN12C and in the assay with HCT-116 was > 100 µM (inactive) in each case. Further, the GI50 with HT-29, with UACC-62, in the assay on BT-549 and in the assay on MDA-MB-435 was > 100 µM (inactive) in each case.
